# According to patent publication US20090118286A1, “Heterobicyclic Acrylamides” (Bayer Cropscience AG, priority 2005, published 2009):
# Assay: log P determination by HPLC (EEC Directive 79/831 Annex V.A8, gradient method)
# Assay type: physicochemical
Structure (SMILES),Physical data: logP,Physical data (logP)
Cc1cn2c(/C=C/C(=O)NC3CC3)c(-c3ccccc3Cl)nc2s1 [Example 0873],2.02,
Cc1cn2c(/C=C/C(=O)NC3CCC3)c(-c3ccccc3Cl)nc2s1 [Example 0874],2.48,
Cc1cn2c(/C=C/C(=O)NC3CCCC3)c(-c3ccccc3Cl)nc2s1 [Example 0875],2.7,
Cc1cn2c(/C=C/C(=O)NC3CCCCC3)c(-c3ccccc3Cl)nc2s1 [Example 0876],3.05,
Cc1cn2c(/C=C/C(=O)Nc3ccc(Cl)cc3)c(-c3ccccc3Cl)nc2s1 [Example 0877],3.57,
Cc1cn2c(/C=C/C(=O)Nc3ccc(OC(F)(F)F)cc3)c(-c3ccccc3Cl)nc2s1 [Example 0878],3.9,
Cc1cn2c(/C=C/C(=O)Nc3ccc(C(F)(F)F)cc3)c(-c3ccccc3Cl)nc2s1 [Example 0879],3.88,
Cc1cn2c(/C=C/C(=O)NCC(F)(F)C(F)(F)F)c(-c3ccccc3Cl)nc2s1 [Example 0880],3.09,
Cc1cn2c(/C=C/C(=O)NCC(F)(F)C(F)(F)C(F)(F)F)c(-c3ccccc3Cl)nc2s1 [Example 0881],3.51,
Cc1csc2nc(-c3ccccc3Cl)c(/C=C/C(=O)NCC(C)C)n12 [Example 0882],2.4,
Cc1csc2nc(-c3ccccc3Cl)c(/C=C/C(=O)NC(C)C(F)(F)F)n12 (stereo not shown) [Example 0883],2.59,
Cc1csc2nc(-c3ccccc3Cl)c(/C=C/C(=O)NC(C(C)C)C(F)(F)F)n12 (stereo not shown) [Example 0884],3.11,
Cc1csc2nc(-c3ccccc3Cl)c(/C=C/C(=O)NCC(C)(C)C)n12 [Example 0885],2.67,
Cc1csc2nc(-c3ccccc3Cl)c(/C=C/C(=O)NCCC(C)C)n12 [Example 0886],2.75,
Cc1csc2nc(-c3ccccc3Cl)c(/C=C/C(=O)NC3CCC(C(F)(F)F)CC3)n12 (stereo not shown) [Example 0887],3.04,
Cc1csc2nc(-c3ccccc3Cl)c(/C=C/C(=O)NCC(F)(F)F)n12 [Example 0888],2.36,
Cc1csc2nc(-c3ccccc3Cl)c(/C=C/C(=O)NC(C)C)n12 [Example 0890],2.09,
CCC(C)NC(=O)/C=C/c1c(-c2ccccc2Cl)nc2scc(C)n12 (stereo not shown) [Example 0891],2.35,
Cc1csc2nc(-c3ccccc3Cl)c(/C=C/C(=O)NC(C)C(C)(C)C)n12 (stereo not shown) [Example 0892],2.84,
Cc1csc2nc(-c3ccccc3Cl)c(/C=C/C(=O)NC3CC3)n12 [Example 0895],1.94,
Cc1csc2nc(-c3ccccc3Cl)c(/C=C/C(=O)NC3CCC3)n12 [Example 0896],2.26,
Cc1csc2nc(-c3ccccc3Cl)c(/C=C/C(=O)NC3CCCC3)n12 [Example 0897],2.46,
Cc1csc2nc(-c3ccccc3Cl)c(/C=C/C(=O)NC3CCCCC3)n12 [Example 0898],2.74,
Cc1csc2nc(-c3ccccc3Cl)c(/C=C/C(=O)Nc3ccc(Cl)cc3)n12 [Example 0899],3.24,
Cc1csc2nc(-c3ccccc3Cl)c(/C=C/C(=O)Nc3ccc(OC(F)(F)F)cc3)n12 [Example 0900],3.66,
Cc1csc2nc(-c3ccccc3Cl)c(/C=C/C(=O)NCC(F)(F)C(F)(F)C(F)(F)F)n12 [Example 0903],3.22,
CC(C)NC(=O)/C=C/c1c(-c2ccccc2Cl)nc2scc(-c3ccccc3)n12 [Example 0904],2.77,
CC(C)NC(=O)/C=C/c1c(-c2ccccc2Cl)nc2sc(C(F)(F)F)cn12 [Example 0906],3.23,

Structure (SMILES),Physical data: logP,Physical data (logP)
CC(C)NC(=O)/C=C/c1c(-c2ccccc2Cl)nc2sc(Br)cn12 [Example 0908],3.82,
O=C(/C=C/c1c(-c2ccc(F)cc2Cl)nc2sc(C(F)(F)F)nn12)NCCCC(F)(F)F [Example 0912],3.75,
O=C(/C=C/c1c(-c2ccc(F)cc2Cl)nc2sc(C(F)(F)F)nn12)NC1(C(F)(F)F)CC1 [Example 0913],3.71,
C[Si](C)(C)CNC(=O)/C=C/c1c(-c2ccc(F)cc2Cl)nc2sc(C(F)(F)F)nn12 [Example 0914],4.10,
CC(C)(NC(=O)/C=C/c1c(-c2ccc(F)cc2Cl)nc2sc(C(F)(F)F)nn12)C(F)(F)F [Example 0915],4.11,
O=C(C=Cc1c(-c2ccccc2Cl)nc2sc(C(F)(F)F)nn12)NC(c1ccc(F)cc1)C(F)(F)F (stereo not shown) [Example 0918],4.34,
O=C(C=Cc1c(-c2ccccc2Cl)nc2sc(C(F)(F)F)nn12)NC(c1ccc(Cl)cc1)C(F)(F)F (stereo not shown) [Example 0919],4.71,
CC(C)NC(=O)/C=C/c1c(-c2sccc2Cl)nc2sc(C(F)(F)F)nn12 [Example 0920],3.19,
CC(C)C(NC(=O)C=Cc1c(-c2sccc2Cl)nc2sc(C(F)(F)F)nn12)C(F)(F)F (stereo not shown) [Example 0923],4.23,
CC(C)NC(=O)/C=C/c1c(-c2ccc(Cl)nc2)nc2sc(C(F)(F)F)nn12 [Example 0933],2.85,
CC(C)C(NC(=O)C=Cc1c(-c2ccc(Cl)nc2)nc2sc(C(F)(F)F)nn12)C(F)(F)F (stereo not shown) [Example 0936],3.89,
CC(C)NC(=O)/C=C/c1c(-c2cccnc2Cl)nc2sc(C(F)(F)F)nn12 [Example 0946],2.47,
CC(C)C(NC(=O)C=Cc1c(-c2cccnc2Cl)nc2sc(C(F)(F)F)nn12)C(F)(F)F (stereo not shown) [Example 0949],3.48,
CC(C)NC(=O)/C=C/c1c(-c2ccccc2Cl)nc2sc(C(F)(F)C(F)(F)F)nn12 [Example 0959],3.66,
CC(C)C(NC(=O)C=Cc1c(-c2ccccc2Cl)nc2sc(C(F)(F)C(F)(F)F)nn12)C(F)(F)F (stereo not shown) [Example 0962],4.62,
CC(C)NC(=O)/C=C/c1c(-c2ccc(F)cc2Cl)nc2sc(C(F)(F)C(F)(F)F)nn12 [Example 0972],3.79,
CC(C)C(NC(=O)C=Cc1c(-c2ccc(F)cc2Cl)nc2sc(C(F)(F)C(F)(F)F)nn12)C(F)(F)F (stereo not shown) [Example 0975],4.76,
CC(C)NC(=O)/C=C/c1c(-c2nccs2)nc2sc(C(F)(F)C(F)(F)F)nn12 [Example 0985],3.27,
CC(C)C(NC(=O)C=Cc1c(-c2nccs2)nc2sc(C(F)(F)C(F)(F)F)nn12)C(F)(F)F (stereo not shown) [Example 0988],4.35,
O=Cc1c(-c2ccccc2Cl)nc2scnn12 [IVA110],,1.79
O=Cc1c(-c2ccccc2Cl)nc2sc(C(F)(F)C(F)(F)F)nn12 [IVA111],,3.47
O=Cc1c(-c2ccc(F)cc2Cl)nc2sc(C(F)(F)C(F)(F)F)nn12 [IVA112],,3.63
O=Cc1c(-c2nccs2)nc2sc(C(F)(F)F)nn12 [IVA113],,2.43
O=Cc1c(-c2nccs2)nc2sc(C(F)(F)C(F)(F)F)nn12 [IVA114],,3.03
O=Cc1c(-c2cncc(Br)c2)nc2sc(C(F)(F)F)nn12 [IVA115],,2.62
O=Cc1c(-c2cccnc2Cl)nc2sc(C(F)(F)F)nn12 [IVA116],,2.14
O=Cc1c(-c2ccc(-c3ccccc3)cc2)nc2sc(C(F)(F)F)nn12 [IVA118],,4.08
